Read-outs that look alike come from different tables or passages of the source.
Legend:
[1] = from literature; cited from earlier work
[2] = from literature (Seaman 1985); cited from earlier work
Oral activity = assay type: in vivo; details: found by applicant ("We have found")
[3] = Prevention of trabecular bone mineral density (BMD) loss; assay type: in vivo; details: found by applicant
Text: Biological activity of compounds according to the invention can be observed in vivo in the rat serum LH suppression test and in the rat anti-steoporosis test measuring restoration of trabecular bone mineral density. Anabolic effect can be observed on musculus levator ani. In the monkey activity can be observed in the testosterone suppression test. In vivo liver safety can be evaluated in the rabbit upon repeated administration of a compound according to the invention.

[4] = Liver safety: BSP retention assay in male castrated rabbits; assay type: in vivo, New Zealand White rabbits; details: 10 mg/kg/day per oral for 7 days, BSP 15 mg/kg intravenous
Method: The primary aim of this test was the evaluation of liver function, by measuring the clearance of a single, intravenously injected, dose of bromosulfophthalein (BSP) after 7 days (once daily) per oral treatment of male castrated rabbits with a compound of the invention.
Briefly, this test is performed in mature male castrated New Zealand White rabbits. At least two weeks after castration animals are treated for seven days (once daily) with tablets, or arachis oil containing 5% (v/v) ethanol, resulting in a dose of 10 mg/kg/day of a test compound. Twenty-four hours after the last administration the rabbits were light sedated with 0.15 ml Hypnorm intramuscular, BSP was injected (15 mg/kg intravenous, dissolved in 5% (w/v) mannitol/H2O). Blood is collected at 5, 10, 15 and 20 minutes, BSP content in plasma is determined with a spectrophotometer. The t½ of BSP elimination from the blood is calculated from the obtained data.

[5] = biological target: T1, human progesterone receptor B (hPRB) (Homo sapiens, UniProt P06401); experiment: Transactivative progestagenic agonistic activity in CHO cells transfected with hPRB, MMTV and luciferase; assay type: cell-based; details: MMTV-luciferase, incubation 16 h, 37° C.
T1 construct: expressed in transfected cells; host or cells: Chinese hamster ovary cells (CHO)
T1 sequence (P06401 1-933): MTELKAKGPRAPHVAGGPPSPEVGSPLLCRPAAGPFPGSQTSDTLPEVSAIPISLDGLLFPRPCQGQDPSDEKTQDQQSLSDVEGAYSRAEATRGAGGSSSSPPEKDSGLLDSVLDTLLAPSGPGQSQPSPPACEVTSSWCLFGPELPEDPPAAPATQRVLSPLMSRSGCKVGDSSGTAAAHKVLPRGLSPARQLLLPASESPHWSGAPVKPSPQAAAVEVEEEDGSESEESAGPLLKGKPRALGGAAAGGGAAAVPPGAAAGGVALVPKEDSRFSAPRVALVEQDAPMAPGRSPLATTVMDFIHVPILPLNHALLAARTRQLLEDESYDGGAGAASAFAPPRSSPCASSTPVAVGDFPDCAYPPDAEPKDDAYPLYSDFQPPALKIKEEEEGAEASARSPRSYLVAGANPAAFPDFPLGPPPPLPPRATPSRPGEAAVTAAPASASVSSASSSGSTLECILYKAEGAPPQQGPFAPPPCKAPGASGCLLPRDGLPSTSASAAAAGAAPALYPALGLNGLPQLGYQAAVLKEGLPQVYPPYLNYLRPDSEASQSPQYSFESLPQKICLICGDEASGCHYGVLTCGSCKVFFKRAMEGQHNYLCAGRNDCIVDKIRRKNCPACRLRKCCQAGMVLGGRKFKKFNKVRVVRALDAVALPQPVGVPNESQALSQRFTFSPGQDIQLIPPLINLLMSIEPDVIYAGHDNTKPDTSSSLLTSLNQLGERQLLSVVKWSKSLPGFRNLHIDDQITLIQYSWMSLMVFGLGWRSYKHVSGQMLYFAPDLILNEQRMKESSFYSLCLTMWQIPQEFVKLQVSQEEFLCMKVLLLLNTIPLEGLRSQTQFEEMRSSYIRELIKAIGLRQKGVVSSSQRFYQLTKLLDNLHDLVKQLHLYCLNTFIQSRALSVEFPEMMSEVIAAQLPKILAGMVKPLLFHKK
Method: (§1) The transactivative progestagenic agonistic activity of the compounds of the invention was measured in Chinese hamster ovary cells (CHO) transfected with the human progesterone receptor B (hPRB), in combination with a mouse mammary tumor virus (MMTV), and luciferase receptor gene (incubation time 16 h, temperature 37° C.) and compared with the activity of (16α)-16-ethyl-21-hydroxy-19-norpregn-4-ene-3,20-dione [according to the procedure described by Schoonen, W. G. E. J. et al., Analyt. Biochem. 261, 222-224 (1998)].

[6] = biological target: T2, human androgen receptor (hAR) (Homo sapiens, UniProt P10275); experiment: Transactivative androgen agonistic activity in CHO cells transfected with hAR, MMTV and luciferase; assay type: cell-based; details: MMTV-luciferase, incubation 16 h, 37° C.
T2 construct: expressed in transfected cells; host or cells: Chinese hamster ovary cells (CHO)
T2 sequence (P10275 1-920): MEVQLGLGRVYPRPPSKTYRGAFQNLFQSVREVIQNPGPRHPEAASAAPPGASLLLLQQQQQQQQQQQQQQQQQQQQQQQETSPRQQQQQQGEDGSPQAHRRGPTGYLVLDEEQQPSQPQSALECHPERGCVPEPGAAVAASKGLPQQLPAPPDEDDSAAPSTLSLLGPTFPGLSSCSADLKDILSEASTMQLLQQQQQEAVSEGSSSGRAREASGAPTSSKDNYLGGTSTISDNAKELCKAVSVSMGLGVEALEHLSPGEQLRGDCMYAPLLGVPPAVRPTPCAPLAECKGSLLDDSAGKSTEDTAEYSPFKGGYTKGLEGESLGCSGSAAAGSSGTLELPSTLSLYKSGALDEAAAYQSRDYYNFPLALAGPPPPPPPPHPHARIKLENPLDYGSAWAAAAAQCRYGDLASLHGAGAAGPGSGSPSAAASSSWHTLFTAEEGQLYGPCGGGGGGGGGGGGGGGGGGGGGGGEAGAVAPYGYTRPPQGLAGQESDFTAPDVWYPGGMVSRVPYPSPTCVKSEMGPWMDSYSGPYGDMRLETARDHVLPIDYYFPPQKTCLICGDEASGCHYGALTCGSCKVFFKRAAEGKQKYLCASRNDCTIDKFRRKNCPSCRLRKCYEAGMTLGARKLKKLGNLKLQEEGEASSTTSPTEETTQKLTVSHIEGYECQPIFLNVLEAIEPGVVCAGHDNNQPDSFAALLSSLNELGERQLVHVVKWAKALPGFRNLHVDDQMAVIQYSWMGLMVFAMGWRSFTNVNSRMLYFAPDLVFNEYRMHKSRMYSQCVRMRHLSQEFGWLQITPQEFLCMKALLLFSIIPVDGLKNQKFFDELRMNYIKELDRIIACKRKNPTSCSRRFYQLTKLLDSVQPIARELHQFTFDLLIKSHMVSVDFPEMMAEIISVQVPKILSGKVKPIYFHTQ
Method: as §1, with “androgen” for “progestagenic”, “androgen” for “progesterone”, “(hAR),” for “B (hPRB),”, “5α-dihydrotestosterone” for “(16α)-16-ethyl-21-hydroxy-19-norpregn-4-ene-3,20-dione”

Liver toxicity = details: stated without citation
[7] = vehicle Arachis oil + 5% ethanol

| Compound | Progestagen activity: Relative agonistic activity (%) versus (16α)-16-ethyl-21-hydroxy-19-norpregn-4-ene-3,20-dione [5] [%] | Androgen activity: Relative agonistic activity (%) versus 5α-dihydrotestosterone [6] [%] | further results |
| --- | --- | --- | --- |
| C[C@@H]1CC2=CC(=O)CC[C@@H]2[C@H]2CC[C@@]3(C)[C@@H](CC[C@]3(C)O)[C@@H]21 [7α,17α-dimethylnandrolone] | – | – | Oral activity [1]: orally active; Liver toxicity [2]: severe liver toxicity |
| CC1CC2=CC(=O)CCC2C2CCC3(C)C(O)CCCC3C12 [7α-Methyl-19-nor-D-homotestosterone] | – | – | Oral activity (Oral activity): not an orally active compound |
| C[C@]1(O)CCC[C@H]2[C@@H]3CCC4=CC(=O)CC[C@@H]4[C@H]3CC[C@@]21C [17aα-Methyl-19-nor-D-homotestosterone] | – | – | Prevention of trabecular bone mineral density (BMD) loss [3]: unable to prevent trabecular bone mineral density (BMD) loss; Oral activity (Oral activity): low activity upon oral administration |
| C[C@]12CCC(=O)C=C1CC[C@@H]1[C@@H]2CC[C@@]2(C)[C@H]1CC[C@]2(C)O [17α-Methyltestosterone, reference compound] | – | – | T½ BSP [4, 7]: 5.6 min; T½ BSP ([4]; vehicle Tablet): 6.0 min |
| CCC12CCC3C4CCC(=O)C=C4CCC3C1CCCC2(C)O [(17aβ)-13-ethyl-17a-hydroxy-17a-methyl-D-homogon-4-en-3-one] | – | – | Oral activity (Oral activity): not orally active |
| CCC12CCC3C4CCC(=O)C=C4CCC3C1CCCC2O [(17aβ)-13-ethyl-17a-hydroxy-D-homogon-4-en-3-one] | – | – | Oral activity (Oral activity): not orally active |
| CCC1CC2=CC(=O)CCC2C2CCC3(C)C(=CCCC3O)C12 [Compound of Example 2, (7α,17aβ)-7-Ethyl-17a-hydroxy-D-homoestra-4,14-dien-3-one] | 0.47 | 30.5 | – |
| CC1CC2=CC(=O)CCC2C2CCC3(C)C(=CCC(C)C3O)C12 [Compound of Example 3, (7α,17α,17aβ)-17a-Hydroxy-7,17-dimethyl-D-homoestra-4,14-dien-3-one] | 47.4 | 10.2 | – |
| CC1CC2=CC(=O)CCC2C2CCC3(C)C(=CCCC3(C)O)C12 [Compound of Example 4, (7α,17aβ)-17a-Hydroxy-7,17a-dimethyl-D-homoestra-4,14-dien-3-one] | 133.7 | 106.9 | T½ BSP [4, 7]: 4.9 min; T½ BSP ([4]; vehicle Tablet): 5.5 min |
| CC1CC2=CC(O)CCC2C2CCC3(C)C(=CCCC3(C)O)C12 [Compound of Example 5, (3β,7α,17aβ)-7,17a-Dimethyl-D-homoestra-4,14-dien-3,17a-diol] | 6.4 | 36.2 | – |
| CCC1(O)CCC=C2C3C(C)CC4=CC(=O)CCC4C3CCC21C [Compound of Example 6, (7α,17aα)-17a-Hydroxy-7-methyl-D-homo-19-norpregna-4,14-dien-3-one] | 91.2 | 13.2 | – |
| CC1(O)CCC=C2C3CCC4=CC(=O)CCC4C3CCC21C [Compound of Example 8, (17aβ)-17a-Hydroxy-17a-methyl-D-homoestra-4,14-dien-3-one] | 228.4 | 157.9 | – |
| C#CC1(O)CCC=C2C3CCC4=CC(=O)CCC4C3CCC21C [Compound of Example 9, (17aα)-17a-Hydroxy-D-homo-19-norpregna-4,14-dien-20-yn-3-one] | 16.0 | 12.3 | – |
| C[C@@H]1CC2=CC(=O)CC[C@@H]2[C@H]2CC[C@@]3(C)C(=CC[C@]3(C)O)[C@@H]21 [Reference compound, (7α,17β)-17-Hydroxy-7,17-dimethylestra-4,14-dien-3-one] | – | – | Liver toxicity (Liver toxicity): severe liver toxicity |
